{"source": "paper PMC6534257", "about": "“Leishmania infantum arginase: biochemical characterization and inhibition by naturally occurring phenolic substances” (Journal of Enzyme Inhibition and Medicinal Chemistry, 2019)", "key": {"RAW 264.7 macrophages": {"tested_on": "RAW 264.7 macrophages", "assay": "Cytotoxicity in RAW 264.7 macrophages (MTT)", "type": "cell-based", "conditions": "48 h", "method": "(§1) RAW 264.7 macrophages were cultured in polystyrene culture flasks containing DMEM medium supplemented with 10% FBS at 37 °C and 5% CO2 atmosphere. For cytotoxic evaluation, 48 h cultured cells were harvested, washed with culture medium, and distributed into 96-well culture plates at 10^5 cells/well concentration. The cells were allowed to adhere for 2 h prior to the addition of increasing inhibitor concentrations (31–1000 µg/mL). Treated cell cultures were incubated for 48 h under the same experimental conditions. After this period, cell viability was determined by colorimetric assay using MTT solution (5 mg/mL) as an indicator. The 50% cytotoxic concentration (CC50) was calculated by analysing the dose-response curves generated from the data."}, "[1]": {"assay": "Cytotoxicity in RAW 264.7 macrophages (MTT)", "type": "cell-based", "conditions": "mouse, RAW 264.7 macrophages, read-out: RAW 264.7 CC50±SE", "method": "as §1"}, "[2]": {"tested_on": "L. infantum-infected RAW 264.7 macrophages", "assay": "Nitric oxide production by infected macrophages (Griess reaction)", "type": "cell-based", "conditions": "48 h treatment", "method": "(§2) The intracellular anti-amastigote activity was performed according to previously described procedures[31] with some modifications. Initially, RAW 264.7 macrophages were distributed in 96-well plates and, after adherence (incubation for 2 h), cells were washed twice with phosphate buffer saline (PBS, pH 7.2). Then, the adherent cells were infected with promastigote forms of L. infantum at the stationary phase of growth in a proportion of 10 parasites/macrophage. After 4 h of interaction at 37 °C and 5% CO2 atmosphere, free parasites were washed away with PBS and infected macrophages were incubated for another 24 h to allow differentiation into amastigotes. After this time, infected cells were treated for 48 h with increasing concentrations of the selected inhibitor. Subsequently, the culture supernatant was collected for evaluation of nitric oxide production using the Griess reaction. Cells were washed with PBS, then Schneider’s medium supplemented with 5% FBS was added and the plate was incubated at 26 °C for 72 h. The parasite survival was estimated by viability of differentiated promastigote forms recovered from the cultures using MTT (5 mg/mL). The results were expressed as the percentage of viability in relation to that obtained for the control (100%). The IC50 for amastigote forms was calculated from the dose-response curves generated from the data.\nIn order to determine if ARGLi inhibitors were capable of modulating the host cell response, RAW 264.7 macrophages were infected with promastigote forms of L. infantum and treated with different concentrations of inhibitors for 48 h. After treatment, NO production was measured. […] This increase is similar to that observed for the reference drug Fungizone® (Figure 5(B)). The effect of caffeic acid on NO production may be a result of macrophage arginase inhibition and consequent oxidation of accumulated L-arginine by inducible NO synthase (iNOS).\nFigure 5. Nitric oxide production by L. infantum-infected RAW 264.7 macrophages treated with different concentrations of ARGLi inhibitors. (A) Treatment with 3.1–200 μg/mL of rosmarinic acid (black), caffeic acid (light gray), and catechin (dark gray). (B) Treatment with 0.062–0.5 μg/mL of the reference drug fungizone. Control (white) represents the production of nitric oxide by infected and untreated macrophages. Nitrite concentration was measured by the Griess reaction and data represent mean ± SE of two independent experiments."}, "[3]": {"tested_on": "L. amazonensis promastigotes", "conditions": "catechin isolated from Stryphnodendron obovatum stem bark ref 47; cited from earlier work"}, "[4]": {"tested_on": "L. infantum intracellular amastigotes", "assay": "Intracellular anti-amastigote activity in infected RAW 264.7 macrophages", "type": "cell-based, Leishmania infantum", "method": "as §2"}, "[5]": {"tested_on": "Leishmania infantum arginase (ARGLi)", "assay": "ARGLi inhibition by phenolic substances (urea production)", "type": "biochemical", "conditions": "100 µM substance; 50 mM L-arginine, pH 9.5, 37 °C, 5 min"}, "[6]": {"tested_on": "L. infantum promastigotes", "assay": "Inhibition of L. infantum promastigotes growth (resazurin)", "type": "cell-based, Leishmania infantum", "method": "The parasite growth inhibition assays were performed on 96-well microplates, where the selected ARGLi inhibitors were previously diluted (1–200 μg/mL). Subsequently, promastigote forms of L. infantum collected in late logarithmic phase (96 h) were added to microplates at the final concentration of 10^6 parasites/mL. Microplates were incubated at 26 °C for 96 h. After the incubation period, parasites viability was determined using 0.005% resazurin[30]. The 50% inhibitory concentration (IC50) was determined from the dose-response curves generated from the data."}}, "note": "“And” between values parts separate entries of the source, which are not always exact repeats. Equal entries are not always repeated."}
{"smiles": "Oc1cc(O)c2c(c1)O[C@H](c1ccc(O)c(O)c1)[C@@H](O)C2", "note": "[Catechin, catechin, reference compound]", "values": [{"measurement": "RAW 264.7 CC50±SE", "setting": "RAW 264.7 macrophages", "result": "256.98 ± 0.64", "unit": "µg/mL"}, {"measurement": "CC50 at 48 h", "setting": "[1]", "result": "257 µg/mL and 885 µM"}, {"measurement": "effect on NO production by infected macrophages (in words)", "setting": "[2]", "result": "did not affect NO production"}, {"measurement": "IC50 for L. amazonensis promastigotes", "setting": "[3]", "result": "43.2 ± 2.1", "unit": "µg/mL"}, {"measurement": "SI AMA (selectivity index CC50/IC50, intracellular amastigotes)", "setting": "[4]; CC50 RAW 264.7 / IC50 intracellular amastigotes", "result": 3.08}, {"measurement": "IC50", "setting": "[4]; Leishmania infantum, RAW264.7, 48 h, infected RAW 264.7, 48 h treatment, read-out: Intracellular amastigotes IC50±SE", "result": "83.2 µg/mL and 287 µM"}, {"measurement": "Intracellular amastigotes IC50±SE", "setting": "[4]; infected RAW 264.7, 48 h treatment", "result": "83.28 ± 10.6", "unit": "µg/mL"}, {"measurement": "percentage of inhibition of ARGLi activity", "setting": "[5]", "result": "49.02 ± 14.92", "unit": "%"}, {"measurement": "Promastigotes IC50±SE", "setting": "[6]; 96 h, 26 °C, resazurin", "result": "114.8 ± 14.65", "unit": "µg/mL"}, {"measurement": "SI PRO (selectivity index CC50/IC50, promastigotes)", "setting": "[6]; CC50 RAW 264.7 / IC50 promastigotes", "result": 2.23}, {"measurement": "IC50", "setting": "[6]; Leishmania infantum, 96 h, 26 °C, resazurin, read-out: Promastigotes IC50±SE", "result": "115 µg/mL and 395 µM"}]}
